Data from patent US4530923A, “N-acetamilide, N-(phenoxy-2-propanol)- and N-(phenylamino-2-propanol)-cyclicamines” (Egyt Gyogyszervegyeszeti Gyar, priority 1981, dated 1985).
Like-named read-outs stand apart in the source and are kept apart here.

How the values were obtained:
right auricle = test: heartelectrophysiological test on isolated rabbit heart preparation, right auricle; conditions: Oryctolagus cuniculus, percentage of the original values, read-out: Spontaneous frequency /right auricle/; for inhibition at 0.2 µg/mL: 0.2 mg/l
[1] = test system: isolated rabbit heart preparation; test: heartelectrophysiological methods on an isolated rabbit heart preparation (summary)
Text: The compounds of Examples 5, 6 and 7, tested by heartelectrophysiological methods on an isolated rabbit heart preparation decrease the spontaneous frequency of right ventricle, increase the electric stimulus threshold, prolong the effective refractory period and also the time of stimulus conduction. The data referring hereto are given in Table II, in the percentage of the original values.

[2] = therapeutic index LD50:ED50 related to antiarrhythmic activity on auricle; type: in vivo, LD50: male Wistar rats; ED50: cats (b90) / rats (b59); conditions: rat, in vivo, iv, ED50 i.v.
Description: (§1) The animals were anaesthetized with chloralose-urethane [50/30 mg/kg, i.v.]. The minimal strength of the current necessary to evoke the ventricular and auricular fibrillo-flutter, respectively, was followed by the method of Szekeres and al. [Szekeres, Mehes and Papp: Brit. J. Pharmacol. 17, 167 (1961); Szekeres and Papp: Experimental Cardiac Arrhythmias and Antiarrhythmic Drugs, Akademiai Kiado, Budapest, 1971; Szekeres and Papp: Experimental Cardiac Arrhythmias, Hdb. Exp. Pharmacol. XVI/3, 131, (1975).
(§2) The therapeutic indices related to the antiarrhythmic activity were calculated on the basis of the LD50 /ED50 ratio, where LD50 is the doses resulting in the death of the 50% of the animals (rats), and ED50 is the dosis provoking a 50% rise in the electrical threshold for fibrillation on rats. The LD50 values were determined on male Wistar rats weighing 180 to 220 g by the method of Litchfield and Wilcoxon [J. Pharmacol. Exp. Ther. 95, 49 (1949)].
(§3) The i.v. and p.os LD50 values were determined on rats.

[3] = therapeutic index LD50:ED50 related to antiarrhythmic activity on ventricle; type: in vivo, LD50: male Wistar rats; ED50: cats (b90) / rats (b59); conditions: rat, in vivo, iv; LD50 p.os rats; ED50 i.v.
Description: as §1, §2, §3

Ventricle [4] = test: as above; type: in vivo, LD50: male Wistar rats; ED50: cats (b90) / rats (b59); conditions: for Ventricle: Therapeutic index LD50:ED50 /i.v.//i.v./: LD50 i.v. rats
Description: as §1, §2, §3

Ventricle [5] = test: antiarrhythmic activity, electrical fibrillation threshold of ventricle, anaesthetized cats; type: in vivo; conditions: relative to quinidine = 1.00, from ED50 mg/kg, i.v., fibrillation threshold method
Description: as §1, §2
(§4) ^+ Relative activity calculated from the antiarrhythmic activity
(§5) [ED50 mg/kg, i.v.] determined on cats by the fibrillation threshold

papillary muscle = test: heartelectrophysiological test on isolated rabbit heart preparation, papillary muscle; conditions: Oryctolagus cuniculus, percentage of the original values; for activation at 0.2 µg/mL: 0.2 mg/l; for activation at 0.5 µg/mL: 0.5 mg/l; for activation at 5 µg/mL: 5 mg/l
dogs = test: haemodynamics in dogs anaesthetized with nembutal; type: in vivo; conditions: nembutal anaesthesia, 0.5 to 2 mg/kg i.v.
Description: On dogs anaesthetized with nembutal (35 mg/kg, i.v.) in an i.v. dosis of 0.5 to 2 mg/kg the compounds slightly decrease the arterial blood pressure. The compounds of Examples 5 and 6 decrease the coronary resistance, improve the oxygenization of the heart muscle, increase the blood flow of the artery femoralis, and the compound of Example 5 increases also the blood flow of arteria carotis.

left auricle = test: heartelectrophysiological test on isolated rabbit heart preparation, left auricle; conditions: Oryctolagus cuniculus, percentage of the original values; for activation at 0.2 µg/mL: 0.2 mg/l; for activation at 0.5 µg/mL: 0.5 mg/l; for activation at 5 µg/mL: 5 mg/l
Auricle [6] = test: antiarrhythmic activity, electrical fibrillation threshold of auricle, anaesthetized cats; type: in vivo; conditions: relative to quinidine = 1.00, from ED50 mg/kg, i.v., fibrillation threshold method
Description: as §1, §2, §4, §5

Auricle [7] = test: therapeutic index LD50:ED50 related to antiarrhythmic activity on auricle; type: in vivo, LD50: male Wistar rats; ED50: cats (b90) / rats (b59)
Description: as §1, §2, §3

[8] = test system: nervus ischiadicus of frog; test: local anaesthetic effect on action potential of nervus ischiadicus of frog
[9] = test system: cardiac rhythm disturbances; conditions: cited from earlier work
[10] = LD50 i.v. rats, read-out: Auricle: Therapeutic index LD50:ED50 /i.v.//i.v./
[11] = LD50 p.os rats, read-out: Auricle: Therapeutic index LD50:ED50 /p.os//i.v./
[12] = read-out: Effective refractory period /papillary muscle/
[13] = read-out: Electrical threshold /papillary muscle/
[14] = read-out: Effective refractory period /left auricle/
[15] = read-out: Electrical threshold /left auricle/
[16] = read-out: Time of the stimulus-conduction /left auricle/
[17] = ventricle (from Table I), versus quinidine

SMILES | inhibition at 0.2 µg/mL (right auricle) | effective refractory period (in words) [1] | electric stimulus threshold (in words) [1] | spontaneous frequency of right ventricle (in words) [1] | time of stimulus conduction (in words) [1] | selectivity ratio [2, 10] | selectivity ratio [2, 11] | selectivity ratio [3] | Ventricle: Therapeutic index LD50:ED50 /i.v.//i.v./ (Ventricle [4]) | Ventricle: Relative activity (Ventricle [5]) | activation at 0.2 µg/mL (papillary muscle; [12]) | activation at 0.2 µg/mL (papillary muscle; [13]) | blood flow of the artery femoralis (dogs) | coronary resistance (dogs) | oxygenization of the heart muscle (dogs) | activation at 0.2 µg/mL (left auricle; [14]) | activation at 0.2 µg/mL (left auricle; [15]) | activation at 0.2 µg/mL (left auricle; [16]) | Auricle: Relative activity (Auricle [6]) | other results
Cc1cccc(C)c1OCC(O)CN1CCCCCC1 (stereo not shown) [Example 5, 1-(2,6-dimethylphenoxy)-3-hexamethyleneimino-propanol-2] | 4 ± 2% | prolong | increase | decrease | prolong | 13.3 | 189 | 110 | 7.7 | 8.04 | 9% | 46% | increase | decrease | improve | 10% | 24% | 38% | 7.14 | blood flow of arteria carotis (dogs): increases
Cc1cccc(C)c1OCC(O)CN1CCCCCCC1 (stereo not shown) [Example 6, 1-(2,6-dimethylphenoxy)-3-heptamethyleneimino-propanol-2] | 7 ± 1% | prolong | increase | decrease | prolong | 23.9 | 1960 | 229 | 2.8 | 2.80 | 4% | 9% | increase | decrease | improve | 3% | 19% | 15% | 12.50 | therapeutic index related to the supraventricular activity (in words) (Auricle [7]; among the tested compounds): most preferable therapeutic index; therapeutic index related to supraventricular activity (i.v. toxicity), times higher than that of quinidine (Auricle [7]; i.v. LD50 / i.v. ED50, versus quinidine): about 1.8 times; therapeutic index related to supraventricular activity (per os toxicity), times higher than that of quinidine (Auricle [7]; per os LD50 / i.v. ED50, versus quinidine): ~7 times; quotient per os LD50 / i.v. ED50, times higher than that of quinidine (Ventricle [4]; [17]): about 1.6 times; local anaesthetic effect (in words) [8]: strong local anaesthetic effect; local anaesthetic effect, times stronger than that of lidocaine ([8]; versus lidocaine): 2.7 times
Cc1cccc(C)c1NCC(O)CN1CCCCCC1 (stereo not shown) [Example 7, 1-hexamethyleneimino-3-(2,6-dimethylanilino)propanol-2] |  | prolong | increase | decrease | prolong | 20.7 | 439 | 209 | 9.9 | 7.85 |  |  |  |  |  |  |  |  | 8.54 | inhibition at 0.5 µg/mL (right auricle; 0.5 mg/l): 9 ± 1%; quotient i.v. LD50 / i.v. ED50, times higher than that of quinidine (Ventricle [4]; [17]): about 1.4 times; activation at 0.5 µg/mL (papillary muscle; [12]): 10%; activation at 0.5 µg/mL (papillary muscle; [13]): 29%; activation at 0.5 µg/mL (left auricle; [14]): 11%; activation at 0.5 µg/mL (left auricle; [15]): 25%; activation at 0.5 µg/mL (left auricle; [16]): 28%
C=C[C@H]1C[N@@]2CC[C@H]1C[C@@H]2[C@@H](O)c1ccnc2ccc(OC)cc12 [Quinidine, reference compound] |  |  |  |  |  | 13.4 | 280 | 145 | 6.9 | 1.00 |  |  |  |  |  |  |  |  | 1.00 | inhibition at 5 µg/mL (right auricle; 5 mg/l): 12 ± 1%; effectiveness in cardiac rhythm disturbances ([9]; Br. Heart J. 38, 381 (1976)): effective primarily in the treatment of arrhythmia, auricular flutter, fibrillation and paroxysmal tachycardia; toxic side-effects ([9]; background literature): induce subjective hyperaesthesia, create vision problems, headache and nausea, and give rise to grave asthmatic symptoms; activation at 5 µg/mL (papillary muscle; [12]): 55%; activation at 5 µg/mL (papillary muscle; [13]): 56%; activation at 5 µg/mL (left auricle; [14]): 32%; activation at 5 µg/mL (left auricle; [15]): 120%; activation at 5 µg/mL (left auricle; [16]): 90%
